{"source": "ChEMBL document CHEMBL1201862", "about": "“PubChem BioAssay data set” (2004)", "assay_in_all_cases": "NCI-60 cell line screen, 48 h", "key": {"786-0": {"tested_on": "786-0"}, "A498": {"tested_on": "A498"}, "A549": {"tested_on": "A549"}, "ACHN": {"tested_on": "ACHN"}, "BT-549": {"tested_on": "BT-549"}, "CAKI-1": {"tested_on": "CAKI-1"}, "CCRF-CEM": {"tested_on": "CCRF-CEM"}, "COLO 205": {"tested_on": "COLO 205"}, "DLD-1": {"tested_on": "DLD-1"}, "DMS-114": {"tested_on": "DMS-114"}, "DMS-273": {"tested_on": "DMS-273"}, "DU-145": {"tested_on": "DU-145"}, "EKVX": {"tested_on": "EKVX"}, "HCC 2998": {"tested_on": "HCC 2998"}, "HCT-116": {"tested_on": "HCT-116"}, "HCT-15": {"tested_on": "HCT-15"}, "HL-60": {"tested_on": "HL-60"}, "HOP-18": {"tested_on": "HOP-18"}, "HOP-62": {"tested_on": "HOP-62"}, "HOP-92": {"tested_on": "HOP-92"}, "HT-29": {"tested_on": "HT-29"}, "Hs-578T": {"tested_on": "Hs-578T"}, "IGROV-1": {"tested_on": "IGROV-1"}, "K562": {"tested_on": "K562"}, "KM-20L2": {"tested_on": "KM-20L2"}, "KM12": {"tested_on": "KM12"}, "LOX IMVI": {"tested_on": "LOX IMVI"}, "LXFL 529": {"tested_on": "LXFL 529"}, "M14": {"tested_on": "M14"}, "M19-MEL": {"tested_on": "M19-MEL"}, "MCF7": {"tested_on": "MCF7"}, "MDA-MB-231": {"tested_on": "MDA-MB-231"}, "MDA-MB-435": {"tested_on": "MDA-MB-435"}, "MDA-N": {"tested_on": "MDA-N"}, "MOLT-4": {"tested_on": "MOLT-4"}, "Malme-3M": {"tested_on": "Malme-3M"}, "NCI-H226": {"tested_on": "NCI-H226"}, "NCI-H23": {"tested_on": "NCI-H23"}, "NCI-H460": {"tested_on": "NCI-H460"}, "NCI-H522": {"tested_on": "NCI-H522"}, "NCI/ADR-RES": {"tested_on": "NCI/ADR-RES"}, "OVCAR-3": {"tested_on": "OVCAR-3"}, "OVCAR-4": {"tested_on": "OVCAR-4"}, "OVCAR-5": {"tested_on": "OVCAR-5"}, "OVCAR-8": {"tested_on": "OVCAR-8"}, "PC-3": {"tested_on": "PC-3"}, "RPMI-8226": {"tested_on": "RPMI-8226"}, "RXF 393": {"tested_on": "RXF 393"}, "RXF 631": {"tested_on": "RXF 631"}, "SF-268": {"tested_on": "SF-268"}, "SF-295": {"tested_on": "SF-295"}, "SF-539": {"tested_on": "SF-539"}, "SK-MEL-28": {"tested_on": "SK-MEL-28"}, "SK-MEL-2": {"tested_on": "SK-MEL-2"}, "SK-MEL-5": {"tested_on": "SK-MEL-5"}, "SK-OV-3": {"tested_on": "SK-OV-3"}, "SN12C": {"tested_on": "SN12C"}, "SNB-19": {"tested_on": "SNB-19"}, "SNB-75": {"tested_on": "SNB-75"}, "SNB-78": {"tested_on": "SNB-78"}, "SR": {"tested_on": "SR"}, "SW-620": {"tested_on": "SW-620"}, "T47D": {"tested_on": "T47D"}, "TK-10": {"tested_on": "TK-10"}, "U-251": {"tested_on": "U-251"}, "UACC-257": {"tested_on": "UACC-257"}, "UACC-62": {"tested_on": "UACC-62"}, "UO-31": {"tested_on": "UO-31"}, "XF498": {"tested_on": "XF498"}}, "note": "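The compound was tested at five concentrations on cells cultured in 96-well plates, with a 48-hour exposure period. GI50: concentration for 50% inhibition of growth.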 Calls of active or inactive are those of the source. Rule as the data show it: active = GI50 up to about 1.1 µM and inactive = higher.", "data": [{"smiles": "Clc1ccc(C(c2ccccc2Cl)C(Cl)Cl)cc1", "note": "(centres undefined) [MITOTANE]", "values": [{"measurement": "GI50", "setting": "786-0", "value": "19.2 µM (inactive)"}, {"measurement": "GI50", "setting": "A498", "value": "20.2 µM (inactive)"}, {"measurement": "GI50", "setting": "A549", "value": "15.1 µM (inactive)"}, {"measurement": "GI50", "setting": "ACHN", "value": "14.8 µM (inactive)"}, {"measurement": "GI50", "setting": "BT-549", "value": "1.59 µM (inactive)"}, {"measurement": "GI50", "setting": "CAKI-1", "value": "13.1 µM (inactive)"}, {"measurement": "GI50", "setting": "CCRF-CEM", "value": "17.7 µM (inactive)"}, {"measurement": "GI50", "setting": "COLO 205", "value": "17.3 µM (inactive)"}, {"measurement": "GI50", "setting": "DLD-1", "value": "19.5 µM (inactive)"}, {"measurement": "GI50", "setting": "DMS-114", "value": "18.5 µM (inactive)"}, {"measurement": "GI50", "setting": "DMS-273", "value": "18.5 µM (inactive)"}, {"measurement": "GI50", "setting": "DU-145", "value": "3.3 µM (inactive)"}, {"measurement": "GI50", "setting": "EKVX", "value": "17.3 µM (inactive)"}, {"measurement": "GI50", "setting": "HCC 2998", "value": "12.7 µM (inactive)"}, {"measurement": "GI50", "setting": "HCT-116", "value": "13.2 µM (inactive)"}, {"measurement": "GI50", "setting": "HCT-15", "value": 15.8, "unit": "µM"}, {"measurement": "GI50", "setting": "HL-60", "value": "18.7 µM (inactive)"}, {"measurement": "GI50", "setting": "HOP-18", "value": "12.5 µM (inactive)"}, {"measurement": "GI50", "setting": "HOP-62", "value": "18.2 µM (inactive)"}, {"measurement": "GI50", "setting": "HOP-92", "value": "13 µM (inactive)"}, {"measurement": "GI50", "setting": "HT-29", "value": "16.8 µM (inactive)"}, {"measurement": "GI50", "setting": "Hs-578T", "value": "3.26 µM (inactive)"}, {"measurement": "GI50", "setting": "IGROV-1", "value": "13.9 µM (inactive)"}, {"measurement": "GI50", "setting": "K562", "value": "16.3 µM (inactive)"}, {"measurement": "GI50", "setting": "KM-20L2", "value": "16.9 µM (inactive)"}, {"measurement": "GI50", "setting": "KM12", "value": "16 µM (inactive)"}, {"measurement": "GI50", "setting": "LOX IMVI", "value": "21.3 µM (inactive)"}, {"measurement": "GI50", "setting": "LXFL 529", "value": "20.9 µM (inactive)"}, {"measurement": "GI50", "setting": "M14", "value": "19.3 µM (inactive)"}, {"measurement": "GI50", "setting": "M19-MEL", "value": "19.7 µM (inactive)"}, {"measurement": "GI50", "setting": "MCF7", "value": "19.2 µM (inactive)"}, {"measurement": "GI50", "setting": "MDA-MB-231", "value": "3.39 µM (inactive)"}, {"measurement": "GI50", "setting": "MDA-MB-435", "value": "3.08 µM (inactive)"}, {"measurement": "GI50", "setting": "MDA-N", "value": "18 µM (inactive)"}, {"measurement": "GI50", "setting": "MOLT-4", "value": "14.7 µM (inactive)"}, {"measurement": "GI50", "setting": "Malme-3M", "value": "14.1 µM (inactive)"}, {"measurement": "GI50", "setting": "NCI-H226", "value": "16.5 µM (inactive)"}, {"measurement": "GI50", "setting": "NCI-H23", "value": "19 µM (inactive)"}, {"measurement": "GI50", "setting": "NCI-H460", "value": "17.3 µM (inactive)"}, {"measurement": "GI50", "setting": "NCI-H522", "value": "16.7 µM (inactive)"}, {"measurement": "GI50", "setting": "NCI/ADR-RES", "value": "15.3 µM (inactive)"}, {"measurement": "GI50", "setting": "OVCAR-3", "value": "15.6 µM (inactive)"}, {"measurement": "GI50", "setting": "OVCAR-4", "value": "16 µM (inactive)"}, {"measurement": "GI50", "setting": "OVCAR-5", "value": "18 µM (inactive)"}, {"measurement": "GI50", "setting": "OVCAR-8", "value": "20.7 µM (inactive)"}, {"measurement": "GI50", "setting": "PC-3", "value": "3.39 µM (inactive)"}, {"measurement": "GI50", "setting": "RPMI-8226", "value": "14.5 µM (inactive)"}, {"measurement": "GI50", "setting": "RXF 393", "value": "11.6 µM (inactive)"}, {"measurement": "GI50", "setting": "RXF 631", "value": "17.9 µM (inactive)"}, {"measurement": "GI50", "setting": "SF-268", "value": "18.5 µM (inactive)"}, {"measurement": "GI50", "setting": "SF-295", "value": "16.2 µM (inactive)"}, {"measurement": "GI50", "setting": "SF-539", "value": "17.1 µM (inactive)"}, {"measurement": "GI50", "setting": "SK-MEL-28", "value": "18.9 µM (inactive)"}, {"measurement": "GI50", "setting": "SK-MEL-2", "value": "18.3 µM (inactive)"}, {"measurement": "GI50", "setting": "SK-MEL-5", "value": "15.8 µM (inactive)"}, {"measurement": "GI50", "setting": "SK-OV-3", "value": "18.1 µM (inactive)"}, {"measurement": "GI50", "setting": "SN12C", "value": "16.7 µM (inactive)"}, {"measurement": "GI50", "setting": "SNB-19", "value": "17.6 µM (inactive)"}, {"measurement": "GI50", "setting": "SNB-75", "value": "15.2 µM (inactive)"}, {"measurement": "GI50", "setting": "SNB-78", "value": "20.7 µM (inactive)"}, {"measurement": "GI50", "setting": "SR", "value": "18.7 µM (inactive)"}, {"measurement": "GI50", "setting": "SW-620", "value": "18 µM (inactive)"}, {"measurement": "GI50", "setting": "T47D", "value": "1.64 µM (inactive)"}, {"measurement": "GI50", "setting": "TK-10", "value": "20 µM (inactive)"}, {"measurement": "GI50", "setting": "U-251", "value": "16.6 µM (inactive)"}, {"measurement": "GI50", "setting": "UACC-257", "value": "19.4 µM (inactive)"}, {"measurement": "GI50", "setting": "UACC-62", "value": "14.8 µM (inactive)"}, {"measurement": "GI50", "setting": "UO-31", "value": "16.9 µM (inactive)"}, {"measurement": "GI50", "setting": "XF498", "value": "15.7 µM (inactive)"}]}]}
